The structures appear in SMILES notation.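 Growth conditions: 96-well plates. Treatment: test compound, 48 hours, 5 concentrations. Analysis: linear interpolation between bracketing concentrations; unreached endpoints set to highest concentration. Here, GI50 denotes the concentration required for 50% inhibition of growth. At the TGI there is no net growth.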 Where only a bound is given, the exact number is not on record here.

Among the test systems are HT29 colon; KM12 colon; MDA-MB-231 breast; OVCAR-4 ovarian; MOLT-4 leukemia; U251 CNS; OVCAR-3 ovarian; HOP-62 NSCLC; HCT-116 colon; M14 melanoma.
What all share (experiment): NCI tumour cell line growth inhibition, 48 h

`O=C1/C(=C/N2N=C(c3ccc4ccccc4c3)CC2c2ccccc2O)SC(=S)N1c1cccnc1` (stereo not given): the GI50 with HT29 colon is 3.05 µM; in the experiment on KM12 colon, 0.473 µM; with MDA-MB-231 breast it was 2.29 µM; in the experiment with OVCAR-4 ovarian, 4.41 µM; in the experiment on MOLT-4 leukemia it was 2.46 µM; in the experiment with U251 CNS, 0.897 µM. Moreover, the GI50 was 0.571 µM in the experiment with OVCAR-3 ovarian, 2.49 µM in the experiment on HOP-62 NSCLC, 0.33 µM with HCT-116 colon and 0.84 µM in the experiment with M14 melanoma. Besides, the TGI was above 100 µM in the experiment on HT29 colon; above 100 µM with KM12 colon; 8.34 µM in the experiment with MDA-MB-231 breast; above 100 µM with OVCAR-4 ovarian; above 100 µM in the experiment on MOLT-4 leukemia; 61 µM in the experiment with U251 CNS. Also, the TGI with OVCAR-3 ovarian is 38.5 µM; with HOP-62 NSCLC, above 100 µM; in the experiment on HCT-116 colon it was above 100 µM; in the experiment with M14 melanoma it was above 100 µM.
On to `O=C(Nc1ccc(Cl)cc1)Nc1nccs1`, for which the GI50 with HT29 colon is 0.511 µM; in the experiment on KM12 colon, 0.491 µM; in the experiment on MDA-MB-231 breast, 3.18 µM; in the experiment on OVCAR-4 ovarian it was 8.38 µM; in the experiment with MOLT-4 leukemia it was 4.8 µM; in the experiment on U251 CNS, 3.44 µM. In addition, the GI50 with OVCAR-3 ovarian is 1.95 µM; with HOP-62 NSCLC, 15.1 µM; in the experiment on HCT-116 colon it was 0.49 µM; with M14 melanoma it was 0.543 µM. Besides, the TGI is 27.1 µM in the experiment with HT29 colon; 19.4 µM in the experiment on KM12 colon; 41.5 µM with MDA-MB-231 breast; above 100 µM in the experiment with OVCAR-4 ovarian; 84.2 µM in the experiment on MOLT-4 leukemia; 26.9 µM with U251 CNS. Moreover, the TGI with OVCAR-3 ovarian was 7.85 µM; in the experiment on HOP-62 NSCLC, above 100 µM; in the experiment with HCT-116 colon, 52.8 µM; in the experiment with M14 melanoma it was 27.5 µM.
Regarding `CC(Cl)CN1c2ccccc2Sc2ccc(Cl)cc21` (stereo not given), the TGI in the experiment on HT29 colon, with KM12 colon, in the experiment with MDA-MB-231 breast, with OVCAR-4 ovarian, in the experiment with MOLT-4 leukemia and in the experiment on U251 CNS was above 10 µM throughout. For the same compound, the TGI with OVCAR-3 ovarian, with HOP-62 NSCLC, in the experiment on HCT-116 colon and in the experiment with M14 melanoma was above 10 µM in each case.
Turning to `CCOC(=O)c1sc(NC(=O)COc2cccc(/C=C3\CCc4cc(OC)ccc4C3=O)c2)nc1C`, the GI50 with HT29 colon is 3.71 µM; with KM12 colon it was 2.3 µM; in the experiment with MDA-MB-231 breast it was 10.1 µM; with OVCAR-4 ovarian it was 9.07 µM; in the experiment with MOLT-4 leukemia, 2.94 µM; with U251 CNS, 2.98 µM. Also, the GI50 was 3.19 µM in the experiment with OVCAR-3 ovarian, 18.2 µM with HOP-62 NSCLC, 3.18 µM in the experiment with HCT-116 colon and 7.95 µM in the experiment on M14 melanoma. Also, the TGI with HT29 colon is above 100 µM; with KM12 colon, 5.12 µM; in the experiment with MDA-MB-231 breast, above 100 µM; in the experiment on OVCAR-4 ovarian, above 100 µM; in the experiment on MOLT-4 leukemia, 12.2 µM; in the experiment with U251 CNS it was 9.13 µM. Also, the TGI in the experiment with OVCAR-3 ovarian was 6.71 µM; in the experiment with HOP-62 NSCLC it was 55.2 µM; with HCT-116 colon, above 100 µM; with M14 melanoma, above 100 µM.
On to `CC1=NC(C)(COC(=O)C2(C)NC(C)(CO)CO2)COC1=O` (stereo not given), for which the TGI in the experiment on HT29 colon, in the experiment on KM12 colon, in the experiment on MDA-MB-231 breast, in the experiment with OVCAR-4 ovarian, in the experiment with MOLT-4 leukemia and in the experiment on U251 CNS was above 100 µM throughout. In addition, the TGI in the experiment on OVCAR-3 ovarian, in the experiment with HOP-62 NSCLC, in the experiment on HCT-116 colon and with M14 melanoma was above 100 µM in each case.
For the compound `NCCCOc1cc2ccccc2cc1C(=O)NCCCOc1cc2ccccc2cc1C(=O)Nc1ccc(Cl)cc1O`, the GI50 in the experiment on HT29 colon was 0.411 µM; with KM12 colon, 0.288 µM; in the experiment with MDA-MB-231 breast it was 0.629 µM; with OVCAR-4 ovarian it was 0.247 µM; in the experiment with MOLT-4 leukemia it was 0.314 µM; with U251 CNS, 0.187 µM. Besides, the GI50 is 1.81 µM in the experiment on OVCAR-3 ovarian, 0.34 µM with HOP-62 NSCLC, 0.19 µM in the experiment on HCT-116 colon and 0.881 µM in the experiment with M14 melanoma. The TGI came out at 1.61 µM in the experiment on HT29 colon; 0.983 µM in the experiment on KM12 colon; 1.82 µM in the experiment with MDA-MB-231 breast; 0.737 µM with OVCAR-4 ovarian; 1.54 µM with MOLT-4 leukemia; 0.35 µM in the experiment on U251 CNS. For the same compound, the TGI in the experiment with OVCAR-3 ovarian came to 3.49 µM; in the experiment with HOP-62 NSCLC, 1.14 µM; in the experiment with HCT-116 colon, 0.374 µM; with M14 melanoma, 2.55 µM.
Regarding `NC(N)=N/N=C(\N=Nc1ccccc1)c1ccc(Cl)cc1`, the GI50 in the experiment on HT29 colon was 2.29 µM; in the experiment with KM12 colon, 2.15 µM; in the experiment with MDA-MB-231 breast, 1.9 µM; in the experiment with OVCAR-4 ovarian, 1.79 µM; with MOLT-4 leukemia, 2.35 µM; in the experiment with U251 CNS, 2.39 µM. For the same compound, the GI50 is 2.8 µM with OVCAR-3 ovarian, 5.1 µM in the experiment with HOP-62 NSCLC, 1.7 µM with HCT-116 colon and 1.51 µM in the experiment with M14 melanoma. Besides, the TGI stood at 5.39 µM with HT29 colon; 7.76 µM with KM12 colon; 12.7 µM in the experiment with MDA-MB-231 breast; 12.6 µM in the experiment with OVCAR-4 ovarian; 6.16 µM in the experiment on MOLT-4 leukemia; 7.55 µM in the experiment with U251 CNS. Also, the TGI was found to be 7.24 µM with OVCAR-3 ovarian, 18.8 µM in the experiment on HOP-62 NSCLC, 3.6 µM with HCT-116 colon and 4.39 µM with M14 melanoma.
As for `CC1(C)N=C(N)N=C(N)N1c1cccc(OCCOc2cccc([N+](=O)[O-])c2)c1`, the GI50 with HT29 colon was 0.583 µM; in the experiment with KM12 colon, 1.37 µM; with MDA-MB-231 breast, 10.2 µM; in the experiment with OVCAR-4 ovarian, 14.4 µM; in the experiment on MOLT-4 leukemia, 2.45 µM; in the experiment on U251 CNS, 0.808 µM. For the same compound, the GI50 was 5.13 µM with OVCAR-3 ovarian, 31.2 µM in the experiment with HOP-62 NSCLC, 0.777 µM in the experiment with HCT-116 colon and 14.4 µM in the experiment with M14 melanoma. Besides, the TGI with HT29 colon, in the experiment on KM12 colon, with MDA-MB-231 breast, with OVCAR-4 ovarian, in the experiment on MOLT-4 leukemia and in the experiment on U251 CNS was above 100 µM in each case. For the same compound, the TGI in the experiment on OVCAR-3 ovarian, with HOP-62 NSCLC, with HCT-116 colon and with M14 melanoma was above 100 µM in each case.

These data come from PubChem BioAssay (NCI).
